C[C@@H]1O[C@@H](OC[C@H]2O[C@@H](Oc3c(-c4ccc(O)c(O)c4)oc4cc(O)cc(O)c4c3=O)[C@H](O)[C@@H](O)[C@@H]2O)[C@H](O)[C@H](O)[C@H]1O
solubility (mole fraction)
Conditions | 273.2 K | 283.2 K | 293.2 K | 303.2 K | 313.2 K | 323.2 K
in ethanol | 0.00348 | 0.00372 | 0.00427 | 0.00515 | 0.00592 | 0.00653
in water | 2.97e-06 | 5.29e-06 | 5.87e-06 | 8.22e-06 | 1.02e-05 | 1.42e-05

Reference: BigSolDB 2.1
